In test [1] the test system is immortalized megakaryocyte cell line. In words: Test Example 2: platelet production, shake culturing, with various aryl hydrocarbon receptor antagonists.
Test [2] shares this test system. Put plainly: Test Example 1: platelet production, shake culturing. Type of test: cell-based. Conditions: compound 10 μM added at Day 3; for fold induction at 10 µM: Platelet, 144 h, DMSO added at cell seeding (no AhR antagonist), platelets (CD41, CD42a, CD42b-positive) counted after 6 days, read-out: Amount of platelet production (vs. Control); for Amount of platelet production (vs. Control): aryl hydrocarbon receptor antagonist Compound A5 0.1 μM added at cell seeding, counted after 6 days. Here is the method:
The immortalized megakaryocyte cell line obtained according to the method described in WO 2016/204256 was washed twice with D-PBS(−) and then cultured in medium not containing doxycycline to terminate forced expression (cultured under conditions where gene expression is OFF). Shake culturing at 100 rpm was performed in the following medium after the cells were seeded in a 125-mL polycarbonate Erlenmeyer flask (Corning #431143) at 25 mL/flask and a seeding density of 1×10^5 cells/mL. Culturing conditions were 37° C. and 5% CO2. The medium was obtained by adding the following components to IMDM serving as the basal medium (concentrations indicate final concentrations). • FBS 15% • L-Glutamine 2 mM • ITS 100-fold dilution • MTG 450 μM • Ascorbic acid 50 μg/mL • SCF 50 ng/mL • TA-316 0.1 μg/mL • ADAM inhibitor 15 μM • ROCK inhibitor 0.5 μM […] After culturing for 6 days in total, the number of platelets was measured. The measurement method was as follows. The same operation was performed for control. At 6 days after initiation of the culturing under conditions where gene expression was OFF, a part of the culture supernatant was collected, and suspended with the following antibody and Flow-Count Fluorospheres (Beckman Coulter #7547053) to perform staining. • APC-labeled anti-CD41 antibody (BioLegend #303710) • eFluor 450-labeled anti-CD42a antibody (eBioscience #48-0428-42) • PE-labeled anti-CD42b antibody (BioLegend #303906) At 30 minutes after staining, number of platelets (CD41, CD42a and CD42b-positive cells) was counted by using FACSVerse (manufactured by BD Japan) with Flow-Count Fluorospheres. The number of platelets was given as a percentage of the control.

[3] abbreviates: with aryl hydrocarbon receptor antagonist Compound A2 0.1 μM, otherwise as Test Example 1.

Each structure is given as a SMILES string.

This note sets out measurements from patent US20240109842A1, “ACRYLAMIDE COMPOUNDS” (OTSUKA PHARMACEUTICAL CO., LTD., priority 2019, published 2024).

For the molecule `CCOc1ccc(OC)cc1CCNC(=O)/C=C/c1c[nH]c2c(OC)cccc12` [Example 59], in test [1] (setting [3]), the “Amount of platelet production (vs. Control)” value (shortened to “Amount … (vs. Control)”) is reported as “++ (not less than 6.5 times)”. Besides, in test [2], the fold induction at 10 µM is 1.5 to 6.5 and the “Amount … (vs. Control)” value was “++ (not less than 6.5 times)”.
In the case of `CCOc1ccccc1CCNC(=O)/C=C/c1c[nH]c2c(C)cccc12` [Example 60], the “Amount … (vs. Control)” value in test [1] (setting [3]) and in test [2] was “++ (not less than 6.5 times)” throughout. Also, the fold induction at 10 µM in test [2] was in the range of 1.5 to 6.5.
In the case of `CCOc1ccccc1CCNC(=O)/C=C/c1c[nH]c2c(CC)cccc12` [Example 57], the “Amount … (vs. Control)” value in test [1] (setting [3]) was “++ (not less than 6.5 times)”. In test [2], the fold induction at 10 µM is 1.5 to 6.5 and the “Amount … (vs. Control)” value is “++ (not less than 6.5 times)”.
On to `CCOc1ccccc1CCNC(=O)/C=C/c1c[nH]c2c(OC)cccc12` [Example 61], for which the “Amount … (vs. Control)” value in test [1] (with aryl hydrocarbon receptor antagonist Compound A1 0.75 μM, otherwise as Test Example 1) is “++ (not less than 6.5 times)”; in test [1] (setting [3]), “++ (not less than 6.5 times)”; in test [1] (with aryl hydrocarbon receptor antagonist Compound A3 10 μM, otherwise as Test Example 1) it was “++ (not less than 6.5 times)”; in test [1] (with aryl hydrocarbon receptor antagonist Compound A4 1 μM, otherwise as Test Example 1) it was “++ (not less than 6.5 times)”; in test [1] (with aryl hydrocarbon receptor antagonist Compound A7 0.1 μM, otherwise as Test Example 1), “++ (not less than 6.5 times)”; in test [1] (with aryl hydrocarbon receptor antagonist Compound A8 0.1 μM, otherwise as Test Example 1), “++ (not less than 6.5 times)”. Moreover, the “Amount … (vs. Control)” value in test [2] is listed as “++ (not less than 6.5 times)”. Also, the fold induction at 10 µM in test [2] lay in the range of 1.5 to 6.5.
With `CC1(C)COc2nc3c(NCCc4ccc(O)c(-c5ccccc5F)c4)nc(-c4cncc(F)c4)nc3n21` [Compound A6, 2-(2-fluorophenyl)-4-[2-[[2-(5-fluoropyridin-3-yl)-8,8-dimethyl-7H-purino[8,9-b][1,3]oxazol-4-yl]amino]ethyl]phenol, reference compound], the “Amount … (vs. Control)” value in test [1] (comparative examples: only an aryl hydrocarbon receptor antagonist, no acrylamide compound, A1 0.75 μM, A2 0.1 μM, A3 10 μM, A4 1 μM, A5 to A8 0.1 μM) was “+ (the amount of platelets production increased by not less than 1.5 times and less than 6.5 times)”.
